Experimental data: patent US10745355B2, “Anti-cancer compounds” (THE UNIVERSITY OF SYDNEY, priority 2015, dated 2020)

Experiments:
[1] = molecular target: T1, (Homo sapiens, UniProt P43403); test: Kinase profiling (ProQinase 33PanQinase Activity Assay), ZAP90; assay type: biochemical; conditions: read-out: residual activity, ZAP90
T1 sequence (P43403 1-619): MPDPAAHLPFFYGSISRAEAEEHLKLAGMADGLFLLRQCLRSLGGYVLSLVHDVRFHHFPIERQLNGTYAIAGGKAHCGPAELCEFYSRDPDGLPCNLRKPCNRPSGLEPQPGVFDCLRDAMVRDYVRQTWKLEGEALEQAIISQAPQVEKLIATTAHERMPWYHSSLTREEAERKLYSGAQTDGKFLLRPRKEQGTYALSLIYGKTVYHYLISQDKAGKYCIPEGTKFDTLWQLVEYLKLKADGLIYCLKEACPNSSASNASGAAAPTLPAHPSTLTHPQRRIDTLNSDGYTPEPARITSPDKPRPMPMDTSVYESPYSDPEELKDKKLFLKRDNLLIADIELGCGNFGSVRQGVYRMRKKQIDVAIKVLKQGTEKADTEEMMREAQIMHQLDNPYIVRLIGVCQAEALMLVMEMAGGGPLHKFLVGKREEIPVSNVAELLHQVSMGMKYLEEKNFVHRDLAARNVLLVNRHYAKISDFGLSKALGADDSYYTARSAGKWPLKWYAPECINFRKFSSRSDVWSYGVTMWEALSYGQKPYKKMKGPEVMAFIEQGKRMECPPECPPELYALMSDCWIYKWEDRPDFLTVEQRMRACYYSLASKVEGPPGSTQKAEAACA
Procedure: The kinase profiling of compound 1-08 at 10 and 50 μM was performed by ProQinase GmbH (Freiburg, Germany). A radiometric protein kinase assay (^33PanQinase® Activity Assay) and the non-radiometric ADP-Glo™ Assay (Promega, Madison, Wis., USA) were used for measuring kinase activity of 387 protein kinases and 13 lipid kinases, respectively. The results are shown in Table 3 (only the top 10 kinases are listed, and the selectivity score describes the portion of kinases inhibited more than 50% in relation to all tested kinases).

[2] = system: WK1 gliomaspheres (mesenchymal); test: AlamarBlue cell viability assay, WK1 gliomaspheres; assay type: cell-based; conditions: 72 h of drug treatment, FIG. 11B
Procedure: FIGS. 11A-11B. Efficacy of SC-38 (referred to as “CMPD1”), compound 1-08 (referred to as “cmpd 13”), compound 1-18 (referred to as “cmpd 7”), and compound 1-38 (referred to as “cmpd 10”) in primary gliomaspheres representing two glioblastoma subtypes. (11A) RN1, classical, and (11B) WK1, mesenchymal. Cellular efficacy (EC50) of test compounds was determined using AlamarBlue cell viability assay after 72 h of drug treatment. Data are mean±SEM from 3 independent experiments performed in triplicate.
U87 and U251 cell lines were obtained from the European Collection of Cell Cultures (ECACC) through CellBank Australia. U87-EGFRvIII cell line was obtained from their lab of origin (Nishikawa et al., 1994, Proc Natl Acad Sci USA 91: 7727-7731) and tested for EGFR amplification and mutation by immunoblotting and flow cytometry. Cells were cultured in DMEM medium (Invitrogen by Life Technologies, Carlsbad, Calif., USA) supplemented with 10% FBS (Sigma-Aldrich) at 37° C. and 5% CO2. Primary gliomaspheres (RN1, classical; WK1, mesenchymal) were derived from glioblastoma specimens (Day et al., 2013, Cancers 5: 357-371; Day et al., 2013, Cancer Cell 23: 238-248), maintained in StemPro NSC serum-free media supplemented with EGF and FGF (all Life Technologies), and grown on matrigel-coated flasks (Pollard et al., 2009, Cell Stem Cell 4: 568-580).
The effect of SC-38, and compounds 1-08, 1-18 and 1-38 in a cell viability assay employing patient-derived gliomaspheres was also investigated. RN1 gliomaspheres representing glioblastoma of the classical subtype were most responsive to the treatment (FIG. 11, where SC-38 is referred to as “CMPD1”, compound 1-08 is referred to as “compound 13”, compound 1-18 is referred to as “compound 7”, and compound 1-38 is referred to as “compound 10”).

[3] = molecular target: T2, Porcine brain tubulin (Sus scrofa, UniProt P02550+P02554); test: Fluorescence-based tubulin polymerisation assay; assay type: biochemical; conditions: 37° C., FIG. 10A
T2 construct: purchased Cytoskeleton, Colo., USA (Tubulin Polymerisation Assay kit); host or cells: porcine brain (tissue-purified)
T2 sequence (P02550 whole entry): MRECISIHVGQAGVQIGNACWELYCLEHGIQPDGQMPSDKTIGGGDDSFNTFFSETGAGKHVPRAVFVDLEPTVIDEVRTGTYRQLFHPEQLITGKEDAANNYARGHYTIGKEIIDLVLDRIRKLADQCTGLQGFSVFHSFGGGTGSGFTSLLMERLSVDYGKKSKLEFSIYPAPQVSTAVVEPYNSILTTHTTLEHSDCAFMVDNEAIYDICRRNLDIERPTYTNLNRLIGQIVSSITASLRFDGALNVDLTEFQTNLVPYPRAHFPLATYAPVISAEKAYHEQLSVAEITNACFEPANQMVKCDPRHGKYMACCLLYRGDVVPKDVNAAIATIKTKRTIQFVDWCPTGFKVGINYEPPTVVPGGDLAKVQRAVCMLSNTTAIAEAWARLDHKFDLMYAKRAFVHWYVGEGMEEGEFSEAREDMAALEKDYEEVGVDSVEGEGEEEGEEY
T2 sequence (P02554 whole entry): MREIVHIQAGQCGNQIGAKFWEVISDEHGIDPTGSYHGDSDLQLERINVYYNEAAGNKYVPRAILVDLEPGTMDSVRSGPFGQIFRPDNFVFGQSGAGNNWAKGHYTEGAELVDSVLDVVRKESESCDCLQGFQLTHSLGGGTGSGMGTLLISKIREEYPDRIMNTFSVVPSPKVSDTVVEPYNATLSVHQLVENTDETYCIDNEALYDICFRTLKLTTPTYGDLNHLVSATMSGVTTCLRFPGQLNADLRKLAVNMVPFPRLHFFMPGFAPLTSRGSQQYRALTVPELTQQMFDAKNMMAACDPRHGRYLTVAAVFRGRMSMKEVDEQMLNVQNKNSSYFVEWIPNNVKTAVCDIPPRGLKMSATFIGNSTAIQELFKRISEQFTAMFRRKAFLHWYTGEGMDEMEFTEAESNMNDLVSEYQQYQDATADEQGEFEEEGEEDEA
Procedure: FIGS. 10A-10D. […] (10A) Compound 1-08 inhibits tubulin polymerisation in vitro. Data are expressed as mean from at least 3 independent experiments; each data point was performed in triplicates. (10B) U87 cells treated with compound 1-08 (24 h) were stained with Alexa488-labelled anti-β-tubulin antibody (green) or DAPI (blue). Treatment profoundly disturbed the microtubule network and caused formation of multinucleated cell (white arrows). White scale bar represents 50 μm. Multinucleated cells were manually counted and at least 200 cells were counted for each sample. Data in the bar graph (10C) are expressed as mean±SEM (n=3; * P<0.05, *** P<0.001; 1-way ANOVA followed by Newman-Keuls posttest). (10D) U87 cells were treated with compound 1-08 (48 h), tubulin and DNA were stained as in (10B). Treatment with 1-08 caused defective mitotic spindle formation. Representative images from 3 independent experiments are shown. White scale bar represents 2 μm.
The effect of compound 1-08 on tubulin polymerisation and mitotic spindle formation was also investigated. The fluorescence-based tubulin polymerisation assay was conducted in the final volume of 55 μL using the Tubulin Polymerisation Assay kit (Cytoskeleton, Colo., USA) as per the manufacturer's instructions. Porcine brain tubulin was incubated with test compounds (paclitaxel, vinblastine and compound 1-08) at 37° C. and fluorescence was measured using FLUOstar Omega microplate reader (BMG Labtech, Ortenberg, Germany; excitation at 355 nm and emission at 460 nm). […] To test whether compound 1-08 alters microtubules in vivo, U87 glioblastoma cells were treated with compound 1-08 and the effect on the microtubules was determined by immunofluorescence staining of β-tubulin. […] The consequence of microtubule depolymerisation induced by compound 13 was disrupted spindle assembly (FIG. 10D). In untreated U87 cells undergoing mitosis, microtubules are assembled into bipolar spindles (control images).

Q: For O=C(CCCc1ccc(-c2cnc3ccccc3c2)cc1)Nc1ccc(O)cc1 [Compound 1-08, N-(4-hydroxyphenyl)-4-(4-(quinolin-3-yl)phenyl)butanamide], which remaining activity at 10 µM ([1]; 10 μM compound) is on record?
A: 60%

Q: What about the remaining activity at 50 µM ([1]; 50 μM compound) of the same molecule?
A: 14%

Q: What about the EC50 [2] of the same molecule?
A: 3.82 µM

Q: What about the “effect on tubulin polymerisation compared to control” value [3] of the same molecule?
A: inhibited tubulin polymerisation in a dose-dependent manner
